Experimental data reported in ChEMBL document CHEMBL1201862, “PubChem BioAssay data set” (2004).
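Interpolation was linear, between the two tested concentrations surrounding the appropriate level; five concentrations were tested over 48 hours in 96-well plates. GI50 = concentration required for 50% inhibition of growth.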 Active and inactive are the calls of the source. Cut-off read from the data, not from the text of the source: active = GI50 up to about 1.1 µM and inactive = higher.

How the values were obtained:
Experiment in all cases: DTP human tumour cell line panel, 48 h
Hs-578T = test system: Hs-578T
OVCAR-3 = test system: OVCAR-3
HCC 2998 = test system: HCC 2998
SN12C = test system: SN12C
BT-549 = test system: BT-549
MOLT-4 = test system: MOLT-4
NCI-H226 = test system: NCI-H226
MCF7 = test system: MCF7
OVCAR-4 = test system: OVCAR-4
A549 = test system: A549
K562 = test system: K562
TK-10 = test system: TK-10
PC-3 = test system: PC-3
SF-539 = test system: SF-539
SW-620 = test system: SW-620
HCT-15 = test system: HCT-15
A498 = test system: A498
CCRF-CEM = test system: CCRF-CEM
SK-MEL-2 = test system: SK-MEL-2
EKVX = test system: EKVX
SK-OV-3 = test system: SK-OV-3
RXF 393 = test system: RXF 393
MDA-N = test system: MDA-N
Malme-3M = test system: Malme-3M
HT-29 = test system: HT-29
T47D = test system: T47D
IGROV-1 = test system: IGROV-1
HOP-62 = test system: HOP-62
SNB-75 = test system: SNB-75
COLO 205 = test system: COLO 205
RPMI-8226 = test system: RPMI-8226
786-0 = test system: 786-0
M14 = test system: M14
MDA-MB-435 = test system: MDA-MB-435
UO-31 = test system: UO-31
U-251 = test system: U-251
LOX IMVI = test system: LOX IMVI
OVCAR-5 = test system: OVCAR-5
OVCAR-8 = test system: OVCAR-8
SNB-19 = test system: SNB-19
DU-145 = test system: DU-145
ACHN = test system: ACHN
SK-MEL-5 = test system: SK-MEL-5
MDA-MB-231 = test system: MDA-MB-231
SF-295 = test system: SF-295
HCT-116 = test system: HCT-116
KM12 = test system: KM12
UACC-257 = test system: UACC-257
NCI/ADR-RES = test system: NCI/ADR-RES
NCI-H23 = test system: NCI-H23
NCI-H460 = test system: NCI-H460
CAKI-1 = test system: CAKI-1
SF-268 = test system: SF-268
UACC-62 = test system: UACC-62
SK-MEL-28 = test system: SK-MEL-28

Measured: GI50

COc1cc(/N=N/N(C)C)c(C(C)c2c3cc(OC)c(OC)cc3cc[n+]2C)cc1OC (centres undefined)
> 100 µM: HCT-15
inactive: Hs-578T 63.5 µM | OVCAR-3 26.7 µM | HCC 2998 34.6 µM | SN12C 40.5 µM | BT-549 46.9 µM | MOLT-4 56.1 µM | NCI-H226 78.5 µM | MCF7 33.4 µM | OVCAR-4 51.9 µM | A549 > 100 µM | K562 18.1 µM | TK-10 31.6 µM | PC-3 38.5 µM | SF-539 10.3 µM | SW-620 85.7 µM | A498 > 100 µM | CCRF-CEM 37.3 µM | SK-MEL-2 24.9 µM | EKVX > 100 µM | SK-OV-3 > 100 µM | RXF 393 17.6 µM | MDA-N 34.8 µM | Malme-3M 34.4 µM | HT-29 35.4 µM | T47D 23.4 µM | IGROV-1 36.9 µM | HOP-62 49.7 µM | SNB-75 31.6 µM | COLO 205 14.8 µM | RPMI-8226 7.76 µM | 786-0 51.8 µM | M14 86.3 µM | MDA-MB-435 40.7 µM | UO-31 > 100 µM | U-251 38.6 µM | LOX IMVI 25.2 µM | OVCAR-5 > 100 µM | OVCAR-8 39.1 µM | SNB-19 42.3 µM | DU-145 62.7 µM | ACHN > 100 µM | SK-MEL-5 21.4 µM | MDA-MB-231 26.3 µM | SF-295 > 100 µM | HCT-116 30 µM | KM12 14.3 µM | UACC-257 38 µM | NCI/ADR-RES > 100 µM | NCI-H23 41.6 µM | NCI-H460 30.8 µM | CAKI-1 > 100 µM | SF-268 31.3 µM | UACC-62 25.1 µM

O=C1c2ccccc2-c2c1c(-c1ccc([N+](=O)[O-])cc1)nc1ccc3ccccc3c21
inactive: Hs-578T > 100 µM | OVCAR-3 > 100 µM | HCC 2998 > 100 µM | SN12C > 100 µM | BT-549 > 100 µM | MOLT-4 > 100 µM | NCI-H226 > 100 µM | MCF7 > 100 µM | OVCAR-4 > 100 µM | A549 > 100 µM | K562 > 100 µM | PC-3 > 100 µM | SF-539 > 100 µM | SW-620 > 100 µM | A498 > 100 µM | CCRF-CEM > 100 µM | SK-MEL-2 > 100 µM | EKVX > 100 µM | SK-OV-3 > 100 µM | MDA-N > 100 µM | Malme-3M > 100 µM | HT-29 > 100 µM | T47D > 100 µM | HOP-62 > 100 µM | SNB-75 > 100 µM | COLO 205 > 100 µM | RPMI-8226 > 100 µM | 786-0 > 100 µM | M14 > 100 µM | MDA-MB-435 > 100 µM | SK-MEL-28 > 100 µM | UO-31 > 100 µM | U-251 > 100 µM | OVCAR-5 > 100 µM | OVCAR-8 > 100 µM | SNB-19 > 100 µM | DU-145 > 100 µM | ACHN > 100 µM | MDA-MB-231 > 100 µM | SF-295 > 100 µM | HCT-116 > 100 µM | KM12 > 100 µM | UACC-257 > 100 µM | NCI/ADR-RES > 100 µM | NCI-H23 > 100 µM | NCI-H460 > 100 µM | CAKI-1 > 100 µM | SF-268 > 100 µM | UACC-62 > 100 µM
> 100 µM: HCT-15
